Laboratory results as given in PubChem BioAssay AID179 (DTP/NCI, 2004).
Where “and” joins values, the source holds several entries; their conditions need not be identical. Identical values can stand only once. Calls of active or inactive are those of the source.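 Rule for the calls: active = compounds giving half or more protection of infected cells from virus-caused growth loss, again on retest; inactive = the rest.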 Where a SMILES comes first, the peptide text is derived from it. Bridges are numbered along the chain shown (N, C = ends). The star is where a group is joined. Cbz = O=C(OCc1ccccc1)*

System: CEM cells HIV-1 protection, formazan growth assay
Test: NCI AIDS Antiviral Assay
Conditions: for IC50: measured here: growth of uninfected CEM cells
How it was run: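 Human CEM cells, uninfected and HIV-1-infected, exposed to five drug concentrations; growth measured by soluble formazan assay and scored as percent protection from infection, with protecting compounds retested.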

| Structure (SMILES) | EC50 | IC50 | outcome |
| --- | --- | --- | --- |
| CCCCCCCCCCC(O)C1CCC(C(O)CCC(O)C2CCC(CCCCCCC[C@H](O)CC3=C[C@@H](C)OC3=O)O2)O1 (stereo partly drawn) | > 7.76 µM | 0.00245 µM |  |
| Cc1cc(Cl)cc2c1S/C(=C1\Sc3c(C)cc(Cl)cc3C1=O)C2=O | > 200 µM | > 200 µM |  |
| CN(C)c1ccc(S(=O)Nc2ccccc2)cc1 (stereo not drawn) | > 200 µM | 85.1 µM |  |
| O=C(CC1(O)C(=O)Nc2ccc(Br)cc21)c1cccc([N+](=O)[O-])c1 (stereo not drawn) | > 174 µM | 93.3 µM |  |
| CNP(=O)(NC)NC | > 200 µM | > 200 µM |  |
| O=C1CC2(CCC(O)(c3cccc4ccccc34)C(C(=O)c3cccc4ccccc34)C2)C(=O)c2ccccc2N1 (stereo not drawn) | > 200 µM | 110 µM |  |
| COC(=O)C1CC(=O)CCC1c1ccccc1 (stereo not drawn) | > 347 µM | > 347 µM |  |
| CC1(Cl)CC2C(CC1Sc1nnnn1-c1ccccc1)C2(C)C (stereo not drawn) | > 20.9 µM | > 20.9 µM |  |
| NC(CSS(=O)(=O)O)=NCCc1ccccc1 | > 200 µM | 110 µM |  |
| N#Cc1c(N2CCCC2)ncn(-c2ccccc2)c1=O | > 200 µM | > 200 µM |  |
| O=C(Nc1ccn(C2CCC(CO)O2)c(=O)n1)c1ccccc1 (stereo not drawn) | 0.741 µM | > 200 µM |  |
| CCOC(=O)/C(=C/c1ccc(OCc2ccccc2)cc1)P(=O)(OCC)OCC | > 44.7 µM | 4.27 µM |  |
| COc1ccc2c(c1)-c1nc(=S)n(CCCN(C)C)c3ccc([N+](=O)[O-])c(c13)N2 | > 2 µM | 0.389 µM |  |
| COC(=O)CSSCc1ccc([N+](=O)[O-])cc1 | > 200 µM | 3.47 µM |  |
| c1cc(C[S+]2CCCC2)ccc1C[S+]1CCCC1 | > 100 µM | > 100 µM |  |
| CC1(C)OCC(C2OC3OC(C)(C)OC3C2OC(=S)SSC(=S)OC2C(C3COC(C)(C)O3)OC3OC(C)(C)OC32)O1 (stereo not drawn) | > 200 µM | 16.6 µM |  |
| CC(C)C1=CC2=CCC3C(C)(COC(=O)COc4ccccc4)CCCC3(C)C2CC1 (stereo not drawn) | > 200 µM | 46.8 µM |  |
| COc1ccccc1C=C1C(=O)OC(C)(C)OC1=O |  |  | inactive |
| CC1=NN(C(=O)Cc2ccccc2)C(=O)/C1=C\c1ccc([N+](=O)[O-])cc1 | > 53.7 µM | > 53.7 µM |  |
| O=C(O)c1nc2cc(C(F)(F)F)ccc2nc1Nc1ccc(Cl)c(Cl)c1 | > 200 µM | 10 µM |  |
| C[C@]12CC[C@H]3[C@@H](CCC4=CC(=O)C=C[C@@]43O)[C@@H]1CCC2=O | > 200 µM | > 200 µM |  |
| CNCCSSCCN | > 200 µM | > 200 µM |  |

| Structure (SMILES) | EC50 | IC50 | outcome |
| --- | --- | --- | --- |
| CC(C)(C)c1ccc(C2(Br)C(=O)NC(=O)C2=O)cc1 (stereo not drawn) | > 200 µM | > 200 µM |  |
| C/C=C1\CN2CCc3c([nH]c4ccccc34)C2CC1CC(=O)N(C)C (stereo not drawn) | > 200 µM | > 200 µM |  |
| COc1cc2c(cc1OC)[C@H]1C(=O)c3cc4c(cc3[C@H]1N(C)C2=O)OCO4 | > 37.2 µM | 0.479 µM |  |
| O=c1[nH]c(=O)n(C2CC(O)C(COP(=O)(OCc3ccc([N+](=O)[O-])o3)N3CCCCC3)O2)cc1F (stereo not drawn) | > 200 µM | 0.17 µM |  |
| C/C(CCO)=N\NC(N)=S | > 200 µM | > 200 µM |  |
| CCOC(=O)CNC(=O)c1cccc2c(Nc3ccc(S(=O)(=O)Nc4cc(C)on4)cc3)c3ccccc3nc12 | > 200 µM | 12.3 µM |  |
| CCn1c(=O)c(N=O)c(N)n(CCO)c1=O | > 200 µM | > 200 µM |  |
| O=C1CC(c2ccco2)C2(C(=O)NC(=O)NC2=O)C(c2ccco2)C1 (stereo not drawn) | > 200 µM | > 200 µM |  |
| C[C@]12C=CC(=O)C=C1CC[C@@H]1[C@@H]2CC[C@]2(C)OC(=O)CC[C@@H]12 | > 832 µM | 224 µM |  |
| Cn1c(=O)n2n(c1=O)C1C3C4C5C3C13COCC53C42 (stereo not drawn) |  |  | inactive |
| O=c1oc2cc(O)ccc2c(O)c1Cc1c(O)c2ccc(O)cc2oc1=O | > 200 µM | 162 µM |  |
| CCOC(=O)Nc1[nH]cc(-c2ccccc2)c1C#N | > 200 µM | > 200 µM |  |
| CCOc1ccccc1Nc1nc(C)c(C(=O)CC(=O)C(=O)Nc2ccccc2)s1 | > 158 µM | 57.5 µM |  |
| COC(=O)C(=O)C(CC(=O)Nc1c(C)cccc1C)C(=O)OC (stereo not drawn) | > 776 µM | > 776 µM |  |
| CC1(C)C(=O)C(C)(C)C1=NN | > 83.2 µM | > 83.2 µM |  |
| COc1ccc(C(CC(C)=O)c2c(O)c3ccccc3oc2=O)cc1OC (stereo not drawn) | > 200 µM | > 200 µM |  |
| O=C1/C=C(/c2ccc(O)cc2)[C@@H](O)Cc2ccc(O)cc2O1 | > 200 µM | > 200 µM |  |
| CC(=O)Nc1cc2cc(NC=C(C#N)C#N)ccc2oc1=O | > 37.2 µM | > 37.2 µM |  |
| C[C@@H]1C(=O)CC2(O)[C@@]13C[C@@H](OC(=O)[C@@H]3O)[C@@H](C)[C@@]21COC1=O (stereo partly drawn) | > 813 µM | > 813 µM |  |
| O=c1c(SSc2coc3cc(F)ccc3c2=O)coc2cc(F)ccc12 | > 200 µM | 2.75 µM |  |
| CC(NNC(=O)c1ccncc1)c1ccc(Cl)c(Cl)c1 (stereo not drawn) | > 200 µM | 107 µM |  |
| COc1ccc2nc3cccc([N+](=O)[O-])c3c(NC(C)CN(C)C)c2c1 (stereo not drawn) | > 20 µM | 2.29 µM |  |

| Structure (SMILES) | EC50 | IC50 | outcome |
| --- | --- | --- | --- |
| CCN(CC)C(=O)c1cccc2c(OC)ccc(OC)c12 |  |  | inactive |
| CN(C)c1c(C2CC(O)C(CO)O2)c(=O)c1=O (stereo not drawn) | > 200 µM | > 200 µM |  |
| C=C1CC(Cn2cc(Br)c(=O)[nH]c2=O)(c2ccc(Br)cc2)OC1=O (stereo not drawn) | > 20 µM | 0.759 µM |  |
| C=C(C)C1CCC2(C)OC2C1 (stereo not drawn) | > 200 µM | > 200 µM |  |
| CC(C)(C)OC(=O)Nc1nnc(S(N)(=O)=O)s1 | 182 µM | > 200 µM |  |
| C[S+]1Cc2nc3ccccc3n2C1c1c(F)cccc1F (stereo not drawn) | > 178 µM | 79.4 µM |  |
| COc1cc(OC)c(/C=C\c2ccnc3ccccc23)c(OC)c1 | > 200 µM | 8.51 µM |  |
| O=C(NC(Nc1ccc(F)cc1)(C(F)(F)F)C(F)(F)F)C(C(F)(F)F)C(F)(F)F |  |  | inactive |
| Cn1c2ccccc2c2ccc3c(c21)C(=O)c1ccc2c4ccccc4n(C)c2c1C3=O | > 200 µM | > 200 µM |  |
| Clc1ccccc1C1N2CCCCC2[C@@H]2c3[nH]c4ccccc4c3CCN12 (stereo partly drawn) | > 50.1 µM | > 50.1 µM |  |
| COC(=O)c1c2c(cc3c1CC1(Cc4cc5c(cc4C1)CCC5)C3)CCC2 | > 200 µM | > 200 µM |  |
| Cc1ccc(S(=O)(=O)Nc2nnc(S(N)(=O)=O)s2)cc1 | > 200 µM | > 200 µM |  |
| CC(C)(C)[Si](C)(C)OCC1OC(n2ccc(=O)[nH]c2=O)C(O[Si](C)(C)C(C)(C)C)[C@@]12O[C@H]2C(N)=O (stereo partly drawn) | > 200 µM | 7.76 µM |  |
| Cc1c2c(n(CC(c3ccccc3)c3ccccc3)c1C)NN=C(C#N)S2(=O)=O | > 200 µM | > 100 µM |  |
| Cc1noc2nccnc12 | > 186 µM | > 186 µM |  |
| Cc1[nH]c(=S)c(C#N)c(C)c1C | > 100 µM | > 100 µM |  |
| CC(C)=C=CC(C)(C)NS(=O)(=O)NC(C)(C)C=C=C(C)C | > 200 µM | 105 µM |  |
| COC(=O)C1CCC(=O)NCCCCC(NC(=O)OCc2ccccc2)C(=O)N1 (stereo not drawn) (Cbz-Lys-Glu-OMe; lactam 1-2; configuration not given here) | > 200 µM | > 200 µM |  |
| CC(C)=CC(=O)OC1C2C(C)=CC(=O)C(O)C2(C)C2C3(O)OCC24C(CC(=O)OC14)C(C)C3O (stereo not drawn) | > 0.2 µM | 0.0112 µM |  |
| COc1ccc(-c2oc3cc(-c4cc5oc(-c6ccc(OC)cc6)c(-c6ccc(OC)cc6)c5cc4OC)c(OC)cc3c2-c2ccc(OC)cc2)cc1 | > 200 µM | > 200 µM |  |
| CO/C=C/c1cc2c(cc1C(OC)OC)OCO2 |  |  | inactive |
| CC(=O)Nc1ccc2c(C)c3c(nc2n1)[nH]c1ccccc13 | > 200 µM | 25.7 µM |  |

| Structure (SMILES) | EC50 | IC50 | outcome |
| --- | --- | --- | --- |
| Oc1ccccc1-c1nnc2sc3c(Cl)c4nn5c(-c6ccccc6O)nnc5sc4c(Cl)c3nn12 | > 200 µM | 36.3 µM |  |
| COc1ccc2c(=O)c(-c3ccc(OC)c(OC)c3)c(C)oc2c1 | > 200 µM | > 200 µM |  |
| [C-]#[O+].[C-]#[O+].[C-]#[O+].[C-]#[O+].[C-]#[O+].[Mo+2].[Mo+4].[c-]1[c-][c-][cH-][c-]1.[c-]1[c-][c-][cH-][c-]1.c1ccc([PH+](CC[PH+](c2ccccc2)c2ccccc2)c2ccccc2)cc1 | > 4.37 µM | 2.69 µM |  |
| COP(=O)(CCC1OCCO1)OC | > 200 µM | > 200 µM |  |
| Cc1ccc(S(=O)(=O)c2c(N)n(CCN(C)C)c3nc4ccccc4nc23)cc1 | > 200 µM | > 200 µM |  |
| COC(=O)c1cc(CN(C)C)c(O)c(CN(C)C)c1 | > 200 µM | > 200 µM |  |
| Cc1cc2n(C)cc(-c3ccnn3C)c(=O)n2n1 | > 151 µM | > 151 µM |  |
| CC(C)OP(=O)(OC(C)C)C(C(F)(F)F)C(F)(F)F | > 200 µM | > 200 µM |  |
| O=C1CC(c2ccc(O)cc2)Oc2cc(O)cc(O)c21 (stereo not drawn) | > 200 µM | > 100 µM and 87.1 µM |  |
| CC(=O)Nc1ccccc1S(=O)(=O)c1c(-c2c(C)c(Cl)c(C)c(Cl)c2C)noc1C | > 200 µM | 87.1 µM |  |
| CCOC(=O)NP(=O)(NNc1ccccc1)NNc1ccccc1 |  |  | inactive |
| C[N+]12CCCCC1CC2 (stereo not drawn) | 47.9 µM | 355 µM |  |
| C=C1C2Oc3ccccc3C1N(c1ccccc1)O2 (stereo not drawn) |  |  | inactive |
| CCOC(=O)NP(=O)(N1CC1)N1CC1 | > 200 µM | > 200 µM |  |
| C=CCNc1nc2c(N)ncnc2s1 | > 200 µM | > 200 µM |  |
| CCOC(=O)Cn1c(=O)cc(C)c2ccccc21 | > 200 µM | > 200 µM |  |
| Cc1ccc(S(=O)(=O)n2cc(/C=C/C#N)c(/C=C/C#N)c2)cc1 |  |  | inactive |
| CC1C2=C(CCCC2=O)N(c2ccc(Cl)cc2)C2=C1C(=O)CCC2 | > 100 µM | > 100 µM |  |
| COC(=O)/C(=C\c1cn(C(C)=O)c2ccccc12)P(=O)(OC)OC | > 200 µM | 33.1 µM |  |
| C=CCOc1ccc(C2(c3ccc(OCC=C)cc3)C(=O)Nc3ccccc32)cc1 | > 200 µM | 44.7 µM |  |
| Fc1ccc(NC(=S)N/N=C\c2c(Cl)cccc2Cl)cc1 | > 275 µM | > 275 µM |  |
| OCCN(CCO)CN(CO)c1nc(N(CO)CN(CCO)CCO)nc(N(CO)CN(CCO)CCO)n1 | > 437 µM | > 437 µM |  |
